ChEMBL document CHEMBL1201862, “PubChem BioAssay data set” (2004)
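Exposure lasted 48 hours, with cells grown in 96-well plates and compounds tested at five concentrations. The concentration for 50% growth inhibition is given as GI50.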 Activity calls are given as the source filed them. Cut-off read from the data, not from the text of the source: active = GI50 up to about 1.1 µM and inactive = higher.

Assays:
Test in all cases: NCI-60 cell line screen, 48 h
Hs-578T = system: Hs-578T
K562 = system: K562
SF-295 = system: SF-295
CCRF-CEM = system: CCRF-CEM
TK-10 = system: TK-10
COLO 205 = system: COLO 205
ACHN = system: ACHN
NCI-H460 = system: NCI-H460
M14 = system: M14
HCT-15 = system: HCT-15
SF-268 = system: SF-268
SNB-75 = system: SNB-75
UO-31 = system: UO-31
UACC-62 = system: UACC-62
HL-60 = system: HL-60
MDA-MB-231 = system: MDA-MB-231
SK-MEL-28 = system: SK-MEL-28
KM12 = system: KM12
NCI-H522 = system: NCI-H522
MOLT-4 = system: MOLT-4
T47D = system: T47D
NCI-H226 = system: NCI-H226
MDA-MB-435 = system: MDA-MB-435
DLD-1 = system: DLD-1
SK-MEL-2 = system: SK-MEL-2
SN12C = system: SN12C
PC-3 = system: PC-3
NCI-H23 = system: NCI-H23
SK-MEL-5 = system: SK-MEL-5
OVCAR-5 = system: OVCAR-5
MDA-N = system: MDA-N
SW-620 = system: SW-620
UACC-257 = system: UACC-257
SR = system: SR
HOP-18 = system: HOP-18
U-251 = system: U-251
IGROV-1 = system: IGROV-1
NCI/ADR-RES = system: NCI/ADR-RES
M19-MEL = system: M19-MEL
HOP-62 = system: HOP-62
A549 = system: A549
RPMI-8226 = system: RPMI-8226
EKVX = system: EKVX
MCF7 = system: MCF7
SF-539 = system: SF-539
HCT-116 = system: HCT-116
Malme-3M = system: Malme-3M
DU-145 = system: DU-145
OVCAR-8 = system: OVCAR-8
HT-29 = system: HT-29
OVCAR-3 = system: OVCAR-3
HCC 2998 = system: HCC 2998
SNB-19 = system: SNB-19
BT-549 = system: BT-549
786-0 = system: 786-0
SK-OV-3 = system: SK-OV-3
HOP-92 = system: HOP-92
LXFL 529 = system: LXFL 529
OVCAR-4 = system: OVCAR-4
LOX IMVI = system: LOX IMVI
CAKI-1 = system: CAKI-1
RXF 393 = system: RXF 393
A498 = system: A498

## CC(=O)Nc1ccc(C(=O)NN2C(=O)C(Cl)C2c2cc(Br)ccc2O)cc1 (stereo not drawn)
Hs-578T
  GI50: 66.1 µM (inactive)
K562
  GI50: 6.41 µM (inactive)
SF-295
  GI50: 3.66 µM (inactive)
CCRF-CEM
  GI50: 1.85 µM (inactive)
TK-10
  GI50: 36.1 µM (inactive)
COLO 205
  GI50: 36.1 µM (inactive)
ACHN
  GI50: 2.99 µM (inactive)
NCI-H460
  GI50: 3.09 µM (inactive)
M14
  GI50: 4.54 µM (inactive)
HCT-15
  GI50: 2.14 µM
SF-268
  GI50: 1.91 µM (inactive)
SNB-75
  GI50: 44.4 µM (inactive)
UO-31
  GI50: 3.72 µM (inactive)
UACC-62
  GI50: 3.85 µM (inactive)
HL-60
  GI50: 2.71 µM (inactive)
MDA-MB-231
  GI50: 3.6 µM (inactive)
SK-MEL-28
  GI50: 4.38 µM (inactive)
KM12
  GI50: 3.44 µM (inactive)
NCI-H522
  GI50: 6.55 µM (inactive)
MOLT-4
  GI50: 3.37 µM (inactive)
T47D
  GI50: 4.16 µM (inactive)
NCI-H226
  GI50: 7.36 µM (inactive)
MDA-MB-435
  GI50: 7.69 µM (inactive)
DLD-1
  GI50: 4.74 µM (inactive)
SK-MEL-2
  GI50: 4.86 µM (inactive)
SN12C
  GI50: 8.71 µM (inactive)
PC-3
  GI50: 3.88 µM (inactive)
NCI-H23
  GI50: 5.75 µM (inactive)
SK-MEL-5
  GI50: 5.04 µM (inactive)
OVCAR-5
  GI50: 19.2 µM (inactive)
MDA-N
  GI50: 9.16 µM (inactive)
SW-620
  GI50: 6.21 µM (inactive)
UACC-257
  GI50: 3.93 µM (inactive)
SR
  GI50: 3.45 µM (inactive)
HOP-18
  GI50: 4.41 µM (inactive)
U-251
  GI50: 2.59 µM (inactive)
IGROV-1
  GI50: 17.6 µM (inactive)
NCI/ADR-RES
  GI50: 3.65 µM (inactive)
M19-MEL
  GI50: 4.12 µM (inactive)
HOP-62
  GI50: 2.2 µM (inactive)
A549
  GI50: 5.46 µM (inactive)
RPMI-8226
  GI50: 12.1 µM (inactive)
EKVX
  GI50: 28.8 µM (inactive)
MCF7
  GI50: 3.84 µM (inactive)
SF-539
  GI50: 4.19 µM (inactive)
HCT-116
  GI50: 3.69 µM (inactive)
Malme-3M
  GI50: 5.55 µM (inactive)
DU-145
  GI50: 6.14 µM (inactive)
OVCAR-8
  GI50: 6.52 µM (inactive)
HT-29
  GI50: 9.46 µM (inactive)
OVCAR-3
  GI50: 4.11 µM (inactive)
HCC 2998
  GI50: 11.2 µM (inactive)
SNB-19
  GI50: 7.62 µM (inactive)
BT-549
  GI50: 14.8 µM (inactive)
786-0
  GI50: 3.54 µM (inactive)
SK-OV-3
  GI50: 4.42 µM (inactive)
HOP-92
  GI50: 15.2 µM (inactive)
LXFL 529
  GI50: 14.4 µM (inactive)
OVCAR-4
  GI50: 3.76 µM (inactive)

## CC(C)(C)OC(=O)CN1CCN(CC(=O)N2CCN(C(=O)OCc3ccccc3)CC2)CCN(CC(=O)OC(C)(C)C)CCN(CC(=O)N2CCN(C(=O)OCc3ccccc3)CC2)CC1
Hs-578T
  GI50: 1.79 µM (inactive)
K562
  GI50: 0.989 µM (active)
SF-295
  GI50: 3.35 µM (inactive)
CCRF-CEM
  GI50: 1.41 µM (inactive)
TK-10
  GI50: 5.92 µM (inactive)
COLO 205
  GI50: 1.15 µM (inactive)
ACHN
  GI50: 7.73 µM (inactive)
NCI-H460
  GI50: 1.35 µM (inactive)
LOX IMVI
  GI50: 1.25 µM (inactive)
M14
  GI50: 3.21 µM (inactive)
HCT-15
  GI50: 6.15 µM
SF-268
  GI50: 2.48 µM (inactive)
SNB-75
  GI50: 1.35 µM (inactive)
UO-31
  GI50: 12.7 µM (inactive)
UACC-62
  GI50: 2.67 µM (inactive)
HL-60
  GI50: 0.225 µM (active)
MDA-MB-231
  GI50: 1.64 µM (inactive)
SK-MEL-28
  GI50: 4.93 µM (inactive)
KM12
  GI50: 1.42 µM (inactive)
NCI-H522
  GI50: 0.785 µM (active)
MOLT-4
  GI50: 1.98 µM (inactive)
T47D
  GI50: 3.12 µM (inactive)
NCI-H226
  GI50: 3.84 µM (inactive)
MDA-MB-435
  GI50: 2.13 µM (inactive)
SK-MEL-2
  GI50: 1.82 µM (inactive)
SN12C
  GI50: 2.76 µM (inactive)
PC-3
  GI50: 2.51 µM (inactive)
NCI-H23
  GI50: 2.6 µM (inactive)
SK-MEL-5
  GI50: 1.71 µM (inactive)
OVCAR-5
  GI50: 13.1 µM (inactive)
CAKI-1
  GI50: 10.1 µM (inactive)
MDA-N
  GI50: 2.18 µM (inactive)
SW-620
  GI50: 1.67 µM (inactive)
UACC-257
  GI50: 2.54 µM (inactive)
SR
  GI50: 0.407 µM (active)
U-251
  GI50: 1.7 µM (inactive)
IGROV-1
  GI50: 0.853 µM (active)
NCI/ADR-RES
  GI50: 14.3 µM (inactive)
HOP-62
  GI50: 3.7 µM (inactive)
A549
  GI50: 3.27 µM (inactive)
RPMI-8226
  GI50: 0.942 µM (active)
EKVX
  GI50: 10.5 µM (inactive)
MCF7
  GI50: 2.35 µM (inactive)
SF-539
  GI50: 2.17 µM (inactive)
RXF 393
  GI50: 3.61 µM (inactive)
HCT-116
  GI50: 3.11 µM (inactive)
Malme-3M
  GI50: 2.33 µM (inactive)
DU-145
  GI50: 6.95 µM (inactive)
OVCAR-8
  GI50: 2.83 µM (inactive)
HT-29
  GI50: 0.318 µM (active)
OVCAR-3
  GI50: 2.83 µM (inactive)
HCC 2998
  GI50: 1.69 µM (inactive)
SNB-19
  GI50: 3.48 µM (inactive)
BT-549
  GI50: 3.94 µM (inactive)
786-0
  GI50: 2.21 µM (inactive)
SK-OV-3
  GI50: 3.47 µM (inactive)
A498
  GI50: 15.4 µM (inactive)
HOP-92
  GI50: 2.6 µM (inactive)
OVCAR-4
  GI50: 2.73 µM (inactive)
